Experimental data published in publication PMC6407917, “Identification of GSK3186899/DDD853651 as a Preclinical Development Candidate for the Treatment of Visceral Leishmaniasis” (Journal of Medicinal Chemistry, 2018).

Tests used:
Assay in all cases: biochemical
Parameters in all cases: species or system HEK293/K-562/placenta mixed human extract; Kinobeads chemoproteomic competition binding, quantified by TMT LC-MS/MS, dose response up to 20 uM
[1] = target: CDK10 (Homo sapiens, UniProt Q15131)
[2] = target: PIM2 (Homo sapiens, UniProt Q9P1W9)
[3] = target: NEK9 (Homo sapiens, UniProt Q8TD19)
[4] = target: CSNK1E (Homo sapiens, UniProt P49674)
[5] = target: MARK3 (Homo sapiens, UniProt P27448)
[6] = target: JAK1 (Homo sapiens, UniProt P23458)
[7] = target: FN3K (Homo sapiens, UniProt Q9H479)
[8] = target: PRKDC (Homo sapiens, UniProt P78527)
[9] = target: CDK7 (Homo sapiens, UniProt P50613)
[10] = target: MAPK1 (Homo sapiens, UniProt P28482)
[11] = target: ADCK1 (Homo sapiens, UniProt Q86TW2)
[12] = target: ULK3 (Homo sapiens, UniProt Q6PHR2)
[13] = target: HIPK2 (Homo sapiens, UniProt Q9H2X6)
[14] = target: CSNK1A1 (Homo sapiens, UniProt P48729)
[15] = target: ACVR1B (Homo sapiens, UniProt P36896)
[16] = target: PTK2B (Homo sapiens, UniProt Q14289)
[17] = target: PIK3R4 (Homo sapiens, UniProt Q99570)
[18] = target: NEK1 (Homo sapiens, UniProt Q96PY6)
[19] = target: BMPR1A (Homo sapiens, UniProt P36894)
[20] = target: EPHB2 (Homo sapiens, UniProt P29323)
[21] = target: SIK2 (Homo sapiens, UniProt Q9H0K1)

ADCK1, sequence (Q86TW2 whole entry): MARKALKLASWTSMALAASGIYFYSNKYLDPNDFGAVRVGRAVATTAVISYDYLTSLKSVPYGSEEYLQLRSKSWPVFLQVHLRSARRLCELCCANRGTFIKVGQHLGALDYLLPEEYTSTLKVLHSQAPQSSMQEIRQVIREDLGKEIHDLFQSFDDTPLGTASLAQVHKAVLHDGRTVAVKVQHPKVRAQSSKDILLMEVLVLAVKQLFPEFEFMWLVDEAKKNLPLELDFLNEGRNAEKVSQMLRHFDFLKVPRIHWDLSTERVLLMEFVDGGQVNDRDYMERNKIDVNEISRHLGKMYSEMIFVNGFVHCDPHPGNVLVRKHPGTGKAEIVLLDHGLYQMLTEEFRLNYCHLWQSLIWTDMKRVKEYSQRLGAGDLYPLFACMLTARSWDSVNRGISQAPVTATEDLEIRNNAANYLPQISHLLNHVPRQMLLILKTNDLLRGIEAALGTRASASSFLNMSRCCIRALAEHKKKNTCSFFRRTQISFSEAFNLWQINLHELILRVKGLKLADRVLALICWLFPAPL
PTK2B, sequence (Q14289 whole entry): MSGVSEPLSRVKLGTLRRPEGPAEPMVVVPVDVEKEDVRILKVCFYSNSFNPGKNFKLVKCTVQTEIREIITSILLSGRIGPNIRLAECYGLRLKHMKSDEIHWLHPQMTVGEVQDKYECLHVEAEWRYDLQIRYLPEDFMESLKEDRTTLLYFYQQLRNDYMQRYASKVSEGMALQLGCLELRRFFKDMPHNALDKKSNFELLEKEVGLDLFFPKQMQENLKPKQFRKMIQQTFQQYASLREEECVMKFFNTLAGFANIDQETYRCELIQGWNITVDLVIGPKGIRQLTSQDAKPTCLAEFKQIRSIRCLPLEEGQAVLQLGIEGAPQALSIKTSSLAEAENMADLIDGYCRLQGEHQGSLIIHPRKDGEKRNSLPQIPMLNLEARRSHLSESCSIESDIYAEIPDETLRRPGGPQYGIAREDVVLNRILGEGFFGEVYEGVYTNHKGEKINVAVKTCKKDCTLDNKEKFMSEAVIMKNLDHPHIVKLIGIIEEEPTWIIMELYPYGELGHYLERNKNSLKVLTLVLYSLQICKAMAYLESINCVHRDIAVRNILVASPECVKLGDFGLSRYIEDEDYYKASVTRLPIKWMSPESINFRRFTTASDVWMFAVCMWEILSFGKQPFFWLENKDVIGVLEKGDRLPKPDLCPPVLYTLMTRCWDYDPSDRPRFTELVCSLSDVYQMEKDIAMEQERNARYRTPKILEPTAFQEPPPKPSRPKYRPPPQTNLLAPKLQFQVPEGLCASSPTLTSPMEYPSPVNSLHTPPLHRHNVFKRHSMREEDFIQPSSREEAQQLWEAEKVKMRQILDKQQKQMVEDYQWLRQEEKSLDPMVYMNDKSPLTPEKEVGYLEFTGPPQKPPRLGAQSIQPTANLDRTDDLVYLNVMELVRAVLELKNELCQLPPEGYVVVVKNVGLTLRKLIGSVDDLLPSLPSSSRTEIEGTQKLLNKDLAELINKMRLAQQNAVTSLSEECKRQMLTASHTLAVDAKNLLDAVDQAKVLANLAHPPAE
MARK3, sequence (P27448 whole entry): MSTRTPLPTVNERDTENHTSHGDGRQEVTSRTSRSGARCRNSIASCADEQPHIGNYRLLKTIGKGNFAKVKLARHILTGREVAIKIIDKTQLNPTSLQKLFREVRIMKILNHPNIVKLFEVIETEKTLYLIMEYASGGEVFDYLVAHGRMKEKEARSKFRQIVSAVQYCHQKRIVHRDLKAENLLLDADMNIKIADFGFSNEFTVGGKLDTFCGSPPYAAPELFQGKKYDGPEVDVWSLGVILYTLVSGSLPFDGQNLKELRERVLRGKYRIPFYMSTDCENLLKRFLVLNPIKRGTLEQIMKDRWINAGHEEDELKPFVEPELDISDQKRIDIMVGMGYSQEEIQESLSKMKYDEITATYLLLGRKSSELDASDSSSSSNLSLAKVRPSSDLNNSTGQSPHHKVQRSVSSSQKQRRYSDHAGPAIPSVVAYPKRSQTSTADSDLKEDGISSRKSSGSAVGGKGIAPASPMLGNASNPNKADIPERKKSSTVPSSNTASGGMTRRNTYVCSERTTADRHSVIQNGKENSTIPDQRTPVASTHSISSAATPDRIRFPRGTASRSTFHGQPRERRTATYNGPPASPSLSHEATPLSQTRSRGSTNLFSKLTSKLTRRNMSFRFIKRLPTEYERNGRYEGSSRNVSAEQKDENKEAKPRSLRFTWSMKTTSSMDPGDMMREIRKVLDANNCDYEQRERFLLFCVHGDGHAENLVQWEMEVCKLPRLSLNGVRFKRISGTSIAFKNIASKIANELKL
EPHB2, sequence (P29323 whole entry): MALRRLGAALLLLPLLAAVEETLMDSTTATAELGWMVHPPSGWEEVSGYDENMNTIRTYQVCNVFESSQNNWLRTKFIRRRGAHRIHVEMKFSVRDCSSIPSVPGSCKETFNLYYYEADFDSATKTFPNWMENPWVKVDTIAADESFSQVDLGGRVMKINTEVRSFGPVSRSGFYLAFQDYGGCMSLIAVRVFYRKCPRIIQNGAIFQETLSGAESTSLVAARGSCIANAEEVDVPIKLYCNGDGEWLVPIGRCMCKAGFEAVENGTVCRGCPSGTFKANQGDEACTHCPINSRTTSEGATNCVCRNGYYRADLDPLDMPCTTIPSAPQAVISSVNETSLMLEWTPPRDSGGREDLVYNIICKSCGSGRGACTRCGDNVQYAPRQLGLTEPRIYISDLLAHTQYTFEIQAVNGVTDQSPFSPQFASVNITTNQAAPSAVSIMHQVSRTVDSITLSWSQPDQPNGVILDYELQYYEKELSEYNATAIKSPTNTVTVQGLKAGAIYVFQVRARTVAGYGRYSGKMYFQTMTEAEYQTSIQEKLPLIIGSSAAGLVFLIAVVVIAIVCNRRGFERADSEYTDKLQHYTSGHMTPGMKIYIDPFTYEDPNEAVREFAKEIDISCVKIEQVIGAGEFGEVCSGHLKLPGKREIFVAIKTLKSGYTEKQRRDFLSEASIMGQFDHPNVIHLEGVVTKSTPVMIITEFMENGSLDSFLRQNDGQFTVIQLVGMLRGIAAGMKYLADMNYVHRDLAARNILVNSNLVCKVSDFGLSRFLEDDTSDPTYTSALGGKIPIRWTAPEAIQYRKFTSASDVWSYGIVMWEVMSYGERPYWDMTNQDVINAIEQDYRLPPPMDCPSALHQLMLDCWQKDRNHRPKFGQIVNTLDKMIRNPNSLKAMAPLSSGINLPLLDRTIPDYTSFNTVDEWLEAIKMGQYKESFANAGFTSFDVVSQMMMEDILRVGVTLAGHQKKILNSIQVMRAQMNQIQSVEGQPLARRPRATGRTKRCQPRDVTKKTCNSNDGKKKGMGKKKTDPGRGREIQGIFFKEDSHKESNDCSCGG
HIPK2, sequence (Q9H2X6 whole entry): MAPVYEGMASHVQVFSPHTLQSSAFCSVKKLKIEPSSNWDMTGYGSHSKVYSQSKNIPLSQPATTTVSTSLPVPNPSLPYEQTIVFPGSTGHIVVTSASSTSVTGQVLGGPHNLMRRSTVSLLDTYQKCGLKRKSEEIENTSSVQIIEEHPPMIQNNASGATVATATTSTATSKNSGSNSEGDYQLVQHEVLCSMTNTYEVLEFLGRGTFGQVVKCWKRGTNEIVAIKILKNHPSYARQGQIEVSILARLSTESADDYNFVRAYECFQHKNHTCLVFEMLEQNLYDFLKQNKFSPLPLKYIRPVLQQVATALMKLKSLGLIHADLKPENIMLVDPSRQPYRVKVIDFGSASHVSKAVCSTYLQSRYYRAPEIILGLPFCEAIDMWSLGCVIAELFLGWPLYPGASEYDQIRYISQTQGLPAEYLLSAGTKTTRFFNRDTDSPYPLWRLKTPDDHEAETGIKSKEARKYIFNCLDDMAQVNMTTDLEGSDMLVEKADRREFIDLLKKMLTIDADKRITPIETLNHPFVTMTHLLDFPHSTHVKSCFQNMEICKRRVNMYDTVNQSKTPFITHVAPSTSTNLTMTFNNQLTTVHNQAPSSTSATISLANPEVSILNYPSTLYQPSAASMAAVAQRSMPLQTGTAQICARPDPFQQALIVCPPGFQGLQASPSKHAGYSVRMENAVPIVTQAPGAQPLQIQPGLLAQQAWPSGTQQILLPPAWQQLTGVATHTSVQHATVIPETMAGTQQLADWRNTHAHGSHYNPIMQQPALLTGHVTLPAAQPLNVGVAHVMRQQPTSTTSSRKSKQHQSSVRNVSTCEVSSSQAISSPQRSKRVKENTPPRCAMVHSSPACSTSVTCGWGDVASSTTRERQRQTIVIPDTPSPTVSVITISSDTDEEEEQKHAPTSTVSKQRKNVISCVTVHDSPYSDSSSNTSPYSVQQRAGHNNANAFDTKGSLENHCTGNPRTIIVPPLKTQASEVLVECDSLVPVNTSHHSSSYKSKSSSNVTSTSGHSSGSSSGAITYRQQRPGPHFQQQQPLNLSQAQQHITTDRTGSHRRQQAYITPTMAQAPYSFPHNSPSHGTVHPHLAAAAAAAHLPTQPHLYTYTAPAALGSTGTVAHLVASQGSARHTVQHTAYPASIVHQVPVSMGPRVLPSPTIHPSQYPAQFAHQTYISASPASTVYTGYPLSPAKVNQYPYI
CSNK1E, sequence (P49674 whole entry): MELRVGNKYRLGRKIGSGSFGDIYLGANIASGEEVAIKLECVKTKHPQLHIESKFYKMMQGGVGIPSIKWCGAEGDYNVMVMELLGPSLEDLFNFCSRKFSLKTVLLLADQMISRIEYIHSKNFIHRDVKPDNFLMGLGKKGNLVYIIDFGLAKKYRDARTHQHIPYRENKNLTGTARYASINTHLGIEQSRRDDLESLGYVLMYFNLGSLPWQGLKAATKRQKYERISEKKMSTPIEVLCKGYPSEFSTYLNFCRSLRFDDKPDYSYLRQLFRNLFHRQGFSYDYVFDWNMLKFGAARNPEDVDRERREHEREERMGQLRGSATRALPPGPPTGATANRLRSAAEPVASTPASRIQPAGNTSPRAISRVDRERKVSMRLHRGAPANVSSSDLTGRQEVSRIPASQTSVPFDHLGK

COc1nc(N[C@H]2CC[C@H](NS(=O)(=O)CC(C)C)CC2)nc2[nH]nc(N3CCOC[C@H]3C)c12 [compound 39, N-(trans-4-((4-Methoxy-3-((R)-3-methylmorpholino)-1H-pyrazolo[3,4-d]pyrimidin-6-yl)amino)cyclohexyl)-2-methylpropane-1-sulfonamide]
IC50 [1]: ≥ 20 µM
IC50 [2]: ≥ 20 µM
IC50 [3]: ≥ 20 µM
IC50 [4]: ≥ 20 µM
IC50 [5]: ≥ 20 µM
IC50 [6]: ≥ 20 µM
IC50 [7]: ≥ 20 µM
IC50 [8]: ≥ 20 µM
IC50 [9]: 2.5 µM
IC50 [10]: ≥ 20 µM
IC50 [11]: ≥ 20 µM
IC50 [12]: ≥ 20 µM
IC50 [13]: ≥ 20 µM
IC50 [14]: ≥ 20 µM
IC50 [15]: ≥ 20 µM
IC50 [16]: ≥ 20 µM
IC50 [17]: ≥ 20 µM
IC50 [18]: ≥ 20 µM
IC50 [19]: ≥ 20 µM
IC50 [20]: ≥ 20 µM
IC50 [21]: ≥ 20 µM
